From patent publication US5310667A (priority 1989, dated 1994) come the findings set out here.

Experiment [1] concerns tobacco plants transformed with glyphosate-tolerant petunia EPSP synthase gene (pMON567). In words: Relative effect of glyphosate spraying on transformed tobacco. It is filed as in vivo, Nicotiana tobacam CV H425. Details: key: 0 = total kill, 10 = normal unsprayed plant. Conditions: GT, 0 total kill, 10 no effect, best transformant. How it is done: Plasmid pMON530 DNA was digested with BglII and ClaI, to which was added the 330 bp BglII-EcoRI EPSP synthase 5' fragment from pMON536 and purified 1.4 kb EcoRI-ClaI EPSP synthase 3' fragment from pMON9566 and then treated with T4 DNA ligase. Following transformation a plasmid was isolated that carried the intact glycine (101) to alanine variant EPSP synthase coding sequence of petunia (with the coding sequence for the chloroplast transmit peptide) adjacent to the CaMV35S promoter. This plasmid was designated pMON567. Plasmid pMON567 was inserted into A. tumefaciens cells that contained helper plasmid pGV3111-SE.
A culture of A. tumefaciens cells containing pMON567/pGV3111-SE was contacted with leaf disks taken from tobacco plants (Nicotiana tobacam CV H425) as described by Horsch (1985). The Agrobacterium cells inserted the variant EPSP synthase gene into the chromosomes of the plant cells. Plant cells resistant to kanamycin were selected and regenerated into differentiated plants by the procedure of Horsch (1985).
Progeny of these plants were propagated and grown to a rosette diameter of about 10 cm corresponding to a plant age of about four weeks. The plants were sprayed with glyphosate at levels corresponding to 0.4, 2.0 and 3.6 pounds acid equiv./acre. The effect of glyphosate on the transformed plants were scored at 7, 14 and 28 days. The effect was translated to a numerical scale of 0-10 in which 0 represents total kill and 10 is the normal, unsprayed plant. […] The values represent the best transformant for both wild-type EPSP synthase and glyphosate-tolerant EPSP synthase genes.

Experiment [2] has as its system control petunia leaf disks (pMON505). Put plainly: Leaf disk callus growth on glyphosate media. It counts as cell-based. Conditions: within 10 days. The method, then: (§1) Leaf disks with diameters of 6 mm (1/4 inch) were taken from surface-sterilized petunia leaves. They were cultivated on MS104 agar medium for 2 days to promote partial cell wall formation at the wound surfaces. They were then submerged in a culture of A. tumefaciens cells containing both pMON546 and GV3111-SE which had been grown overnight in Luria broth at 28° C., and shaken gently. The cells were removed from the bacterial suspension, blotted dry, and incubated upside down on filter paper placed over "nurse" cultures of tobacco cells, as described by Horsch (1980). After 2 or 3 days, the disks were transferred to petri dishes containing MS media with 500 μg/ml carbenicillin and 0. 0.1, 0.25, or 0.5 mM glyphosate (sodium salt), with no nurse cultures.
(§2) Control tissue was created using A. tumefaciens cells containing the helper plasmid pGV3111-SE and a different plant transformation vector, pMON505, which contained a T-DNA region with a NOS/NPTII/NOS kanamycin resistance gene and a NOS selectable marker gene identical to pMON546, but without the CaMV35S/EPSP synthase gene.

Experiment [3] concerns petunia leaf disks transformed with pMON546 (CaMV35S/EPSP synthase gene). In words: Leaf disk callus growth on glyphosate media. It counts as cell-based. Conditions: within 10 days. The method, then: as §1, §2
For experiment [4], the target named is T1, petunia EPSP synthase glycine (101) to alanine variant (Petunia hybrida, UniProt P11043, G173A).
T1 construct: made in house; host or cells: E. coli
T1 sequence (P11043 73-516 G173A): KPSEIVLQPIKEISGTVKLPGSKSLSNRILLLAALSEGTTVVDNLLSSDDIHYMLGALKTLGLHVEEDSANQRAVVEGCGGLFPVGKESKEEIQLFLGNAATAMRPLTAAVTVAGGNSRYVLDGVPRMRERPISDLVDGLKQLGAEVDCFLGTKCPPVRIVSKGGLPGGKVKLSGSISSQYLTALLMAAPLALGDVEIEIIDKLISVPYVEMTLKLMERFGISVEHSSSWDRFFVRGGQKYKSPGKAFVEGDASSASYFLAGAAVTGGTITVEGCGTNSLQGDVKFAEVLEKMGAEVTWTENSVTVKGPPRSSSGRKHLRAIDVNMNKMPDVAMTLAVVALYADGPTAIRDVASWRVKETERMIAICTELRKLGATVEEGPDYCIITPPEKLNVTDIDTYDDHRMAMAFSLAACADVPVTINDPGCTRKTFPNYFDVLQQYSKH
In words: EPSP synthase kinetic constants (appKi glyphosate, appKm PEP). It counts as biochemical. The method, then:
To an assay mix (40 μl) containing shikimate-3-phosphate (2 mM), ^14 C-phosphoenolpyruvate (1 mM, 1.2 mCi/mmol), ammonium molybdate (0.1 mM), potassium fluoride (5 mM) in 50 mM HEPES-KOH, pH 7, was added the extract and incubated at 25° C. for 2 mins. The reaction was quenched by the addition of 50 μl of 50 μl of 90% ethanol/0.1M acetic acid, pH 4.5. 70 μl of the reaction mixture was loaded on a SynchroPak AX100 HPLC column (0.4×25 cm) and the column was eluted with 0.5M potassium phosphate, pH 5.5 at 1 ml/min. The radioactivity of the eluent was monitored using a Radiomatic Flo-One Beta Instrument. (Radiomatics, Fla.). The EPSP synthase activity was determined by measurement of the conversion of ^14 C-PEP to ^14 C-EPSP synthase, both of which are resolved under the above conditions of chromatography. The protein content of the extract was determined by the method of Bradford (Biorad Labs, Calif.). The specific activity of the extract is expressed as nanomoles of EPSP synthase formed/min/mg protein.
Kinetic constants (appKm PEP and appKi glyphosate) were determined for EPSP synthase as described below. Substrate kinetic parameters were determined at pH 7.0 in 50 mM HEPES (N-[2-hydroxyethyl]piperazine-N'-[2-ethanesulfonic acid]) buffer in the presence of 2 mM S3P and varying amounts of ^14 C-PEP (10 μM-400 μM), for 2.0 minutes at 25° C. Reactions were quenched with 100 mM Na Acetate in ethanol, pH 4.5, centrifuged and analyzed for product EPSP formation by HPLC with flow radioactivity detection. HPLC conditions were 0.35 MKPi, pH 6.5, on a Synchropak AX100 column at 1.0 ml/min.

Setting [5] is: 0.1 mM glyphosate (sodium salt).
The mark [6] stands for this setting: 0.25 mM glyphosate (sodium salt).
Setting [7] is: 0.5 mM glyphosate (sodium salt).

`O=C(O)CNCP(=O)(O)O` [glyphosate, N-phosphonomethylglycine]: the “Relative Effect of Glyphosate” value in experiment [1] (0.4 pounds/Acre, day 7) was determined as 8.0; in experiment [1] (0.4 pounds/Acre, day 14), 8.0; in experiment [1] (0.4 pounds/Acre, day 28), 9.0; in experiment [1] (2.0 pounds/Acre, day 7), 8.0; in experiment [1] (2.0 pounds/Acre, day 14) it was 8.3; in experiment [1] (2.0 pounds/Acre, day 28), 7.0. Further, the “Relative Effect of Glyphosate” value is given as 5.0 in experiment [1] (3.6 pounds/Acre, day 7); 7.4 in experiment [1] (3.6 pounds/Acre, day 14); 7.0 in experiment [1] (3.6 pounds/Acre, day 28). Besides, the callus growth is “little detectable difference between the control disks and the transformed tissue” in experiment [2] (setting [5]); “very little growth of callus” in experiment [2] (setting [6]); “no callus growth” in experiment [2] (setting [7]); “little detectable difference between the control disks and the transformed tissue” in experiment [3] (setting [5]); “substantial growth of transformed tissue” in experiment [3] (setting [6]); “a significant number of calli grew” in experiment [3] (setting [7]). Besides, in experiment [4], the affinity corresponds to a Ki of 2000 µM. Also, in experiment [4] (Ki glyphosate / Km PEP), the Ki/Km ratio is 10.0.
